This is an account of results in patent US7863449B2, “Modulators of muscarinic receptors” (Vertex Pharmaceuticals Incorporated, priority 2004, dated 2011).

The target of one test is T1, M1 muscarinic receptor (Homo sapiens, UniProt P11229).
T1 construct: expressed in transfected cells; host or cells: CHO (M1-CHO)
T1 sequence (P11229 1-460): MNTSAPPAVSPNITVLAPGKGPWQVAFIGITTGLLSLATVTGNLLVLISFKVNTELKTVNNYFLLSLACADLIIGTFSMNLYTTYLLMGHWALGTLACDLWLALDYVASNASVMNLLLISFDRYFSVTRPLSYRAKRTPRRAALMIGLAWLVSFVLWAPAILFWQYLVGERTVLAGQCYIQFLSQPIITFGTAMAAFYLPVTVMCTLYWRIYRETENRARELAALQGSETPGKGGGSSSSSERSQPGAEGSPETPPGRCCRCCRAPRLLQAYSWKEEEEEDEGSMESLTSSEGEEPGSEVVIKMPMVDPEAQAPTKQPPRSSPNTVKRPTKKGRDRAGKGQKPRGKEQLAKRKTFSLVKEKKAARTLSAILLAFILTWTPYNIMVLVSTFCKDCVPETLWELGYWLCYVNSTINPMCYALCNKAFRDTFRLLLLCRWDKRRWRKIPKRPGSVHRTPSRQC
Description: Functional mobilization of intracellular calcium (FLIPR), M1-CHO cells. The format is cell-based. As to conditions: for Emax: 100% efficacy is the maximum response obtained using Carbachol as a control; for M1 Activity: M1-CHO cells, FLIPR calcium mobilization. In a few lines: (§1)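 Calcium flux recorded 60 s (ex 488, em 540 nm) in dye-loaded M1- or M4-CHO cells in pH 7.4 buffer with 1 mM probenecid. Inhibition measured against carbachol EC80 after 15 min compound pre-incubation or co-addition; agonism measured by compound addition alone. Final DMSO 0.5%.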
For orientation: A change in cytosolic calcium serves as a functional read-out for many receptors and channels.

In another test the target is T2, M4 muscarinic receptor (Homo sapiens, UniProt P08173).
T2 construct: expressed in transfected cells; host or cells: CHO (M4-CHO)
T2 sequence (P08173 1-479): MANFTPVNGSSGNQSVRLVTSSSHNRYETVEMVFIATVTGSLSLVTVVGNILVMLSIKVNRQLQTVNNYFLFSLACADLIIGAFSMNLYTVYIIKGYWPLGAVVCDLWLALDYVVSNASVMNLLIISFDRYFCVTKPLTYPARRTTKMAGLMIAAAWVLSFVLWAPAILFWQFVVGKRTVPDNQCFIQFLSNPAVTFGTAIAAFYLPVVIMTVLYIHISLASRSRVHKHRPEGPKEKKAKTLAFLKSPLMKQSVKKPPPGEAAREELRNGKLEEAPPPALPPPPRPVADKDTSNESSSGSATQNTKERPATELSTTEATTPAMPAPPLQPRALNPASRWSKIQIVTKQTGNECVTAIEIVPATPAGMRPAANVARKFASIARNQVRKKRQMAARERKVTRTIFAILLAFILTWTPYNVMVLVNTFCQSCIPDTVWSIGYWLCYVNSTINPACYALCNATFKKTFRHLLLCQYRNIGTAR
Description: Functional mobilization of intracellular calcium (FLIPR), M4-CHO cells. The format is cell-based. As to conditions: for Emax: 100% efficacy is the maximum response obtained using Carbachol as a control; for M4 Activity: M4-CHO cells, FLIPR calcium mobilization. In a few lines: as §1

On to `CCOC(=O)N1CCC(N2CCC3(CC2)CN(C(=O)CC(C)C)Cc2ccccc23)CC1` [compound 229], for which, at M1 muscarinic receptor, the Emax lay in the range of 25 to 100% and the “M1 Activity” value is reported as “+++ (activity was measured to be less than 1.0 μM)”. At M4 muscarinic receptor, the Emax lay within 25 to 100% and the “M4 Activity” value is on record as “+++ (activity was measured to be less than 1.0 μM)”.
Consider `CCOC(=O)N1CCC(N2CCC3(CC2)OC(=O)c2cc(Cl)ccc23)CC1` [compound 230], for which, at M1 muscarinic receptor, the Emax lay in the range of 25 to 100% and the “M1 Activity” value was “+++ (activity was measured to be less than 1.0 μM)”. For the same compound, on M4 muscarinic receptor, the Emax lay within 25 to 100% and the “M4 Activity” value is recorded as “++ (activity was measured to be from 1.0 μM to 5.0 μM)”.
As for `CCOC(=O)N1C2CCC1CC(N1CCC3(CC1)CN(C(=O)Nc1c(C)noc1C)Cc1ccccc13)C2.Cl` (stereo not drawn) [compound 233, Ethyl 3-(2-(3,5-dimethylisoxazol-4-ylcarbamoyl)-2,3-dihydro-1H -spiro[isoquinoline-4,4′-piperidine]-1′-yl)-8-azabicyclo[3.2.1]octane-8-carboxylate hydrochloride], at M1 muscarinic receptor, the Emax was in the range of 25 to 100% and the “M1 Activity” value is listed as “+++ (activity was measured to be less than 1.0 μM)”. In addition, on M4 muscarinic receptor, the Emax is 25 to 100% and the “M4 Activity” value is “+++ (activity was measured to be less than 1.0 μM)”.
Take `CCOC(=O)N1CCC(N2CCC3(CC2)CN(C(=O)OC)Cc2ccccc23)CC1` [compound 240]: on M1 muscarinic receptor, the Emax lay within 25 to 100% and the “M1 Activity” value was “+++ (activity was measured to be less than 1.0 μM)”. Also, on M4 muscarinic receptor, the maximum response (Emax) lay in the range of 25 to 100% and the “M4 Activity” value is recorded as “+++ (activity was measured to be less than 1.0 μM)”.
`CC(C)OC(=O)N1C2CCC1CC(N1CCC3(CC1)CN(S(=O)(=O)N(C)C)Cc1ccccc13)C2` (stereo not drawn) [compound 241]: on M1 muscarinic receptor, the Emax fell in the range of 25 to 100% and the “M1 Activity” value was “+++ (activity was measured to be less than 1.0 μM)”. On M4 muscarinic receptor, the Emax was in the range of 25 to 100% and the “M4 Activity” value is recorded as “+++ (activity was measured to be less than 1.0 μM)”.
Consider `CCOC(=O)N1CCC(N2CCC3(CC2)CN(C(=O)N(CC)CC)Cc2ccccc23)CC1` [compound 242], for which, at M1 muscarinic receptor, the Emax was in the range of 25 to 100% and the “M1 Activity” value was “+++ (activity was measured to be less than 1.0 μM)”. Also, at M4 muscarinic receptor, the Emax is < 25% and the “M4 Activity” value was “+ (activity was measured to be greater than 5.0 μM)”.
As to `CC(=O)N1Cc2ccccc2C2(CCN(CC3CCN(C(=O)O[C@H]4CCOC4)CC3)CC2)C1` [compound 243], at M1 muscarinic receptor, the Emax is < 25% and the “M1 Activity” value is on record as “+ (activity was measured to be greater than 5.0 μM)”. At M4 muscarinic receptor, the Emax is < 25% and the “M4 Activity” value is recorded as “+ (activity was measured to be greater than 5.0 μM)”.
In the case of `CCOC(=O)N1C2CCC1CC(N1CCC3(CC1)CN(C(=O)C1(C)CC1)Cc1ccccc13)C2` (stereo not drawn) [compound 244], at M1 muscarinic receptor, the Emax is 25 to 100% and the “M1 Activity” value is reported as “+++ (activity was measured to be less than 1.0 μM)”. Besides, on M4 muscarinic receptor, the Emax is 25 to 100% and the “M4 Activity” value is recorded as “+++ (activity was measured to be less than 1.0 μM)”.
Regarding `CCOC(=O)N1C2CCC1CC(N1CCC3(CC1)CN(S(=O)(=O)c1ccc(-c4ccccc4)cc1)Cc1ccccc13)C2` (stereo not drawn) [compound 245], on M1 muscarinic receptor, the Emax was in the range of 25 to 100% and the “M1 Activity” value is listed as “++ (activity was measured to be from 1.0 μM to 5.0 μM)”. For the same compound, on M4 muscarinic receptor, the Emax lay within 25 to 100% and the “M4 Activity” value is “++ (activity was measured to be from 1.0 μM to 5.0 μM)”.
`CCOC(=O)N1C2CCC1CC(N1CCC3(CC1)CN(S(=O)(=O)c1c(C)noc1C)Cc1ccccc13)C2` (stereo not drawn) [compound 246]: on M1 muscarinic receptor, the maximal response (Emax) is 25 to 100% and the “M1 Activity” value is listed as “+++ (activity was measured to be less than 1.0 μM)”. For the same compound, at M4 muscarinic receptor, the maximal response (Emax) was > 100% and the “M4 Activity” value is on record as “+++ (activity was measured to be less than 1.0 μM)”.
As to `CC(=O)N1Cc2ccccc2C2(CCN(Cc3cccc(F)c3)CC2)C1` [compound 247], at M1 muscarinic receptor, the Emax was < 25% and the “M1 Activity” value is on record as “+ (activity was measured to be greater than 5.0 μM)”. Also, at M4 muscarinic receptor, the Emax is < 25% and the “M4 Activity” value is “+ (activity was measured to be greater than 5.0 μM)”.
On to `COCCOC(=O)N1C2CCC1CC(N1CCC3(CC1)CN(S(=O)(=O)N(C)C)Cc1ccccc13)C2` (stereo not drawn) [compound 249], for which, on M1 muscarinic receptor, the Emax lay in the range of 25 to 100% and the “M1 Activity” value is listed as “+++ (activity was measured to be less than 1.0 μM)”. On M4 muscarinic receptor, the Emax lay in the range of 25 to 100% and the “M4 Activity” value is reported as “+++ (activity was measured to be less than 1.0 μM)”.
In the case of `CCOC(=O)N1CCC(N2CCC3(CC2)CN(C(=O)C2CCC2)Cc2ccccc23)CC1` [compound 250], on M1 muscarinic receptor, the maximal response (Emax) lay within 25 to 100% and the “M1 Activity” value is “+++ (activity was measured to be less than 1.0 μM)”. On M4 muscarinic receptor, the Emax lay in the range of 25 to 100% and the “M4 Activity” value is listed as “+++ (activity was measured to be less than 1.0 μM)”.
For `CCOC(=O)N1C2CCC1CC(N1CCC3(CC1)CN(S(=O)(=O)c1ccc(C(F)(F)F)cc1)Cc1ccccc13)C2` (stereo not drawn) [compound 251], on M1 muscarinic receptor, the Emax lay within 25 to 100% and the “M1 Activity” value was “+++ (activity was measured to be less than 1.0 μM)”. Besides, at M4 muscarinic receptor, the Emax was in the range of 25 to 100% and the “M4 Activity” value was “+++ (activity was measured to be less than 1.0 μM)”.
As to `CC(=O)N1Cc2ccccc2C2(CCN(CC3CCN(C(=O)OC4CCCC4)CC3)CC2)C1` [compound 252], at M1 muscarinic receptor, the Emax was < 25% and the “M1 Activity” value is on record as “+ (activity was measured to be greater than 5.0 μM)”. Moreover, on M4 muscarinic receptor, the Emax was < 25% and the “M4 Activity” value was “+ (activity was measured to be greater than 5.0 μM)”.
Regarding `CCOC(=O)N1C2CCC1CC(N1CCC3(CC1)CN(S(=O)(=O)c1cccc(Cl)c1)Cc1ccccc13)C2` (stereo not drawn) [compound 253], on M1 muscarinic receptor, the Emax is 25 to 100% and the “M1 Activity” value was “+++ (activity was measured to be less than 1.0 μM)”. At M4 muscarinic receptor, the Emax was 25 to 100% and the “M4 Activity” value is reported as “+++ (activity was measured to be less than 1.0 μM)”.
As for `CCCOC(=O)N1Cc2ccccc2C2(CCN(C3CCN(C(=O)OCC)CC3)CC2)C1` [compound 254], at M1 muscarinic receptor, the Emax was in the range of 25 to 100% and the “M1 Activity” value is “+++ (activity was measured to be less than 1.0 μM)”. Besides, at M4 muscarinic receptor, the Emax is 25 to 100% and the “M4 Activity” value is listed as “+++ (activity was measured to be less than 1.0 μM)”.
`CCOCCN1CCC2(CC1)CN(C(C)=O)Cc1ccccc12` [compound 256]: the Emax on M1 muscarinic receptor and at M4 muscarinic receptor was < 25% in each case.
As for `CC(=O)N1Cc2ccccc2C2(CCN(C3CCN(C(=O)OC4CCC4)CC3)CC2)C1` [compound 258], on M1 muscarinic receptor, the Emax lay within 25 to 100% and the “M1 Activity” value was “+++ (activity was measured to be less than 1.0 μM)”. In addition, at M4 muscarinic receptor, the Emax is 25 to 100% and the “M4 Activity” value was “+++ (activity was measured to be less than 1.0 μM)”.
With `CCOC(=O)N1CCC(N2CCC3(CC2)CN(C(=O)c2nc(C)oc2C)Cc2ccccc23)CC1` [compound 261], on M1 muscarinic receptor, the maximal effect (Emax) is 25 to 100% and the “M1 Activity” value was “+++ (activity was measured to be less than 1.0 μM)”. Also, on M4 muscarinic receptor, the Emax is 25 to 100% and the “M4 Activity” value is “+++ (activity was measured to be less than 1.0 μM)”.
In the case of `CCOC(=O)N1CCC(CN2CCC3(CC2)CN(C(=O)OC2CCCC2)Cc2ccccc23)CC1` [compound 263], on M1 muscarinic receptor, the Emax was in the range of 25 to 100% and the “M1 Activity” value is “+++ (activity was measured to be less than 1.0 μM)”. Also, at M4 muscarinic receptor, the Emax fell in the range of 25 to 100% and the “M4 Activity” value is given as “+++ (activity was measured to be less than 1.0 μM)”.
`CC(=O)N1Cc2ccccc2C2(CCN(CC3CCCOC3)CC2)C1` (stereo not drawn) [compound 266]: on M1 muscarinic receptor, the Emax was < 25% and the “M1 Activity” value was “+ (activity was measured to be greater than 5.0 μM)”. In addition, at M4 muscarinic receptor, the Emax was < 25% and the “M4 Activity” value was “+ (activity was measured to be greater than 5.0 μM)”.
Regarding `O=C1NC2(CCN(CC3CC4C=CC3C4)CC2)c2ccccc21` (stereo not drawn) [compound 267, 1′-(bicyclo[2.2.1]hept-5-en-2-ylmethyl)spiro[isoindoline-1,4′-piperidin]-3-one], on M1 muscarinic receptor, the Emax is 25 to 100% and the “M1 Activity” value is listed as “++ (activity was measured to be from 1.0 μM to 5.0 μM)”. For the same compound, at M4 muscarinic receptor, the Emax is 25 to 100% and the “M4 Activity” value was “++ (activity was measured to be from 1.0 μM to 5.0 μM)”.

The term Emax denotes the size of the effect at its maximum, as opposed to the concentration needed.
